Assay results: ChEMBL document CHEMBL5257126, “Moderately lipophilic 2-(Het)aryl-6-dithioacetals, 2-phenyl-1,4-benzodioxane-6-dithioacetals and 2-phenylbenzofuran-5-dithioacetals: Synthesis and primary evaluation as potential antidiabetic AMPK-activators” (Bioorg Med Chem, 2023)

How the values were obtained:
[1] = target: T1, Serine/threonine-protein kinase STK11 (Rattus norvegicus) (UniProt D4AE59); experiment: Activation of LKB1 in rat L6 cells assessed as fold increase in phosphorylation at Ser428 at 10 uM incubated for 24 hrs by Western blot analysis; assay type: cell-based
T1 sequence (whole entry): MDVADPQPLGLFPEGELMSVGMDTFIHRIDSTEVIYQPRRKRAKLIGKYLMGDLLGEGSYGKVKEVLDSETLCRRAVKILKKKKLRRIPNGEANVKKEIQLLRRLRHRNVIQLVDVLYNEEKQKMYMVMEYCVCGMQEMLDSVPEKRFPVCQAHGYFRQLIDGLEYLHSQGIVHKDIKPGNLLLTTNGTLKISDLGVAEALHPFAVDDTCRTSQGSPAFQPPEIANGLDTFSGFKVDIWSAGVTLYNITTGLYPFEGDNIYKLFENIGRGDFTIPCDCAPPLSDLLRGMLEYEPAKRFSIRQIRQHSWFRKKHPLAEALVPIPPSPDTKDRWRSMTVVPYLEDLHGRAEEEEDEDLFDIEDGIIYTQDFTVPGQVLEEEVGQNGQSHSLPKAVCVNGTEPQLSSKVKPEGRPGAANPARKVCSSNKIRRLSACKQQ

[2] = target: T1, Serine/threonine-protein kinase STK11 (Rattus norvegicus); experiment: Activation of LKB1 in rat L6 cells assessed as fold increase in phosphorylation at Ser428 at 25 uM incubated for 24 hrs by Western blot analysis; assay type: cell-based; settings: filed as activator
[3] = tested on: L6; experiment: Induction of glucose uptake in rat L6 cells assessed as fold increase by measuring 2-NBDG uptake at 25 uM preincubated in high glucose medium for 48 hrs followed by compound addition and measured after 24 hrs; assay type: functional
[4] = tested on: L6; experiment: Induction of glucose uptake in rat L6 cells assessed as fold increase by measuring 2-NBDG uptake at 2.5 uM preincubated in high glucose medium for 48 hrs followed by compound addition and measured after 24 hrs; assay type: functional
[5] = tested on: L6; experiment: Induction of glucose uptake in rat L6 cells assessed as fold increase by measuring 2-NBDG uptake at 0.25 uM preincubated in high glucose medium for 48 hrs followed by compound addition and measured after 24 hrs; assay type: functional

Compound	Activity [1] [%]	Activity [2] [%]	fold change (FC) [3]	fold change (FC) [4]	fold change (FC) [5]
c1ccc(C2CCc3cc(C4SCCCCS4)ccc3O2)cc1 (configuration not stated)	30	80			
OCCSC(SCCO)c1ccc2c(c1)CCC(c1ccccc1)O2 (configuration not stated)			1.5	1	1
c1cncc(C2CCc3cc(C4SCCCS4)ccc3O2)c1 (configuration not stated)			1.3	1	1
COc1ccc(C2CCc3cc(C4SCCCCS4)ccc3O2)cc1 (configuration not stated)			2.2	1.9	1.4
c1ccc(-c2cc3cc(C4SCCCCS4)ccc3o2)cc1			1.1	1	1
c1ccc(C2COc3cc(C4SCCCS4)ccc3O2)cc1 (configuration not stated)			1.2	1	1
COc1cccc(C2CCc3cc(C4SCCCS4)ccc3O2)c1 (configuration not stated)			1.5	1	1
OCCSC(SCCO)c1ccc2c(c1)OCC(c1ccccc1)O2 (configuration not stated)			1.7	1.2	1.1
O[C@H]1CS[C@@H](c2ccc3c(c2)CCC(c2ccccc2)O3)SC1 (some centres not stated)			1	1	1.1
OCCOCCSC(SCCOCCO)c1ccc2c(c1)CCC(c1ccccc1)O2 (configuration not stated)			1.1	1.1	1
OCCSC(SCCO)c1ccc2c(c1)CCC(c1ccco1)O2 (configuration not stated)			1.5	1	1.1
